By viability is commonly meant a read-out of living cells in per cent, often relative to untreated cells.

This note sets out measurements from paper PMC12040169 (PLOS Biology, 2025).

The nature of the first data set: in vitro. As to conditions: human, hela cells, % viability.
As to `O=C(NCc1ccco1)[C@H]1CN2CCC1C[C@@H]2Cn1cc(CO)nn1` (stereo partly drawn) [CBK289080], the viability at 28.5 h, 10 µM stood at 113%.
For `Cc1cccc(/N=C2\NC(=O)C(Cc3ccc(C)c(Cl)c3)S2)n1` (stereo not drawn) [CBK265597], the viability at 28.5 h, 10 µM is 106%.
In the case of `C=CCc1ccc(OCC(=O)NN)c(OC)c1` [CBK261831], the viability at 28.5 h, 10 µM was found to be 97.5%.
For the molecule `CCn1cc(CN2C3CCC2CC(O)(c2cccc(F)c2)C3)c(C)n1` (stereo not drawn) [CBK282755], the viability at 28.5 h, 10 µM is 80.9%.
On to `CCOC(=O)c1cccc(-n2ncc(-c3ccc(F)cc3)n2)c1` [CBK112908], for which the viability at 28.5 h, 10 µM came out at 94.1%.
On the same count and under the same terms, the result for `Cn1nnnc1NC(=O)c1ccccc1F` [CBK058776] reads 102%.
Same read-out and setting: to `CCN(CC)CCCOC1(C)SC(NC2CCCCCC2)=NC1=O` (stereo not drawn) [CBK113510] belongs 86.5%; to `CCC(CN1CCCC1)NC(=O)Cc1ccc(OC)c(C)c1` (stereo not drawn) [CBK282752], 92.9%.
On the same count and under the same terms, to `COc1ccc(OC(=O)N2CCC(n3c(=O)[nH]c4ccccc43)CC2)cc1` [CBK149868] belongs 102%; to `CC(c1ncc(Br)cn1)N1CCN(Cc2noc(C(C)(C)C)n2)CC1` (stereo not drawn) [CBK306168], 87.4%.
Take `O=C(/C=C/c1ccccc1)NC(NC(=S)Nc1cccc2cccnc12)C(Cl)(Cl)Cl` (stereo not drawn) [CBK261046]: the viability at 28.5 h, 10 µM came to 101%.
Same read-out and setting: to `COC(=O)c1ccc(N2CCN(C)CC2)c([N+](=O)[O-])c1` [CBK264341] belongs 99.4%.
Consider `CN1C(=O)COc2ccccc2CCCC[C@@H]2[C@H]1CCCN2CCO` [CBK292112], for which the viability at 28.5 h, 10 µM was 103%.
Same read-out and setting: to `COc1ccc2[nH]c(CN3CCCC(c4nc(C)n[nH]4)C3)c(C)c2c1` (stereo not drawn) [CBK306904] belongs 101%; to `CC(=O)Nc1nc2ccc(S(=O)(=O)N3CCCC3)cc2s1` [CBK287604], 98.8%.
On to `Cc1nc(C(Cc2ccsc2)NC(=O)Cn2ccnc2)sc1C` (stereo not drawn) [CBK284777], for which the viability at 28.5 h, 10 µM worked out at 102%.
Turning to `COc1ccc([C@@]23CC[C@@H](N)C[C@@H]2N(C(C)(C)C)CC3)cc1OC` [CBK067673], the viability at 28.5 h, 10 µM was determined as 114%.
For `Cc1ncsc1CCS(=O)(=O)N1CCOCC1c1cccc(F)c1` (stereo not drawn) [CBK304254], the viability at 28.5 h, 10 µM amounted to 91%.
Still for that read-out and setting: to `OC1(c2cccnc2F)CCN(Cc2ccc(F)c(F)c2)CC1` [CBK284370] belongs 90%; to `Cc1cc(Cl)cc(Cl)c1S(=O)(=O)Nc1nc2c(s1)CN(C(=O)N1CCOCC1)CC2` [CBK000931], 92.6%.
Same read-out and setting: to `CC(C)(CC(=O)O)CC(=O)Nc1ccc(Cl)c(Cl)c1` [CBK086500] belongs 92.6%.
Same read-out and setting: to `COc1ccc(C(=O)N2CCN(CC(=O)N3CCOCC3)CC2)cc1` [CBK133150] belongs 108%.
With `O=C(CCCN1CCN(CCCC(=O)c2ccc(F)cc2)CC1)c1ccc(F)cc1` [CBK025317C], the viability at 28.5 h, 10 µM is 89.1%.
The same measure, in the same setting: to `CN(C)CCN1CCN(c2nc(-c3cccnc3)cnc2N)CC1` [CBK063503] belongs 93.6%; to `O=C(O)c1cccc(CSc2nnc(-c3ccccc3)c(-c3ccccc3)n2)c1` [CBK269165], 97.6%.
Still for that read-out and setting: the result for `Cc1cc(N2C(=O)CC(N3CCC(C(=O)N4CCOCC4)CC3)C2=O)no1` (stereo not drawn) [CBK269035] reads 92.6%.
Turning to `Cc1cc(Br)ccc1C(=O)N1CC(C(N)=O)CCC1C` (stereo not drawn) [CBK305954], the viability at 28.5 h, 10 µM stood at 83.2%.
Turning to `Cc1nsc(NCc2ccccc2CN2CCCC2CO)c1C#N` (stereo not drawn) [CBK304124], the viability at 28.5 h, 10 µM was 88.8%.
Same read-out and setting: to `COc1ccc(C(C)C)cc1-c1ccc(NS(C)(=O)=O)c2ccccc12` [CBK083747] belongs 97.8%; to `CC(=O)c1ccc(NC(=O)CSc2nc(O)cc(-c3ccccc3)n2)cc1` [CBK269048], 96%; to `Cc1cccc(C)c1NC(=O)C(=O)NCCCN1CCOCC1` [CBK264850], 90.6%.
On the same count and under the same terms, the result for `CC(C)CCNCc1ccc(-c2cn(CC(=O)NCCc3ccccc3)nn2)cc1` [CBK164740] reads 95.9%.
Regarding `CC(C)(C)S(=O)(=O)Nc1nccnc1-c1ccc(OCc2ccccc2)cc1` [CBK050886], the viability at 28.5 h, 10 µM turned out to be 89.4%.
The same measure, in the same setting: to `O=C(CCC(=O)c1ccccc1)Nc1ccccc1N1CCNCC1` [CBK028284T] belongs 92.9%; to `Cc1cc2c(o1)c1cnn(CC(=O)N3CCCC3)c(=O)c1n2C` [CBK284223], 100%; to `O=C(CSc1nnc(-c2ccc(Cl)cc2Cl)[nH]1)Nc1ccc(F)cc1` [CBK267651], 96.4%.
As to `C=CCn1cc(CN2CCc3c(nc(C)[nH]c3=O)C2)c2ccccc21` [CBK283992], the viability at 28.5 h, 10 µM turned out to be 97.5%.
Same read-out and setting: to `Cc1cc(C)nc(NC(=N)NCCc2c[nH]c3ccccc23)n1` [CBK266321] belongs 70.2%; to `Cc1ncsc1CCOc1ncccc1C(F)(F)F` [CBK115781], 92.2%; to `Cc1nn(CCCC(=O)O)c(C)c1I` [CBK269796], 91.3%.
On the same count and under the same terms, to `CCn1nc(C)c(-c2cncn2CCCN2CCCCC2)c1C` [CBK281769] belongs 97.6%.
`COc1ccccc1NC(=O)N(CC(C)C)CC(C)C` [CBK005456]: the viability at 28.5 h, 10 µM was found to be 102%.
As to `COc1ccc([C@@]23CC[C@@H](NC(=O)Nc4ccc(Cl)nc4)C[C@@H]2N(C)CC3)cc1OC` [CBK045764], the viability at 28.5 h, 10 µM amounted to 91.9%.
Same read-out and setting: the result for `COc1cc(CNCc2ccccn2)ccc1OCc1cccc(Cl)c1` [CBK269877C] reads 94.7%.
Same read-out and setting: the result for `CC(C)n1cnc2ccc(-c3noc(-c4nccc5ccccc45)n3)cc21` [CBK288617] reads 109%.
On the same count and under the same terms, the result for `CC1(C)CCCN(C(=O)CCn2ccc3ccncc32)C1` [CBK285173] reads 87.3%.
`O=C(Cc1ccc(Br)cc1)Nc1cc(C(=O)O)cc(C(=O)O)c1` [CBK268228]: the viability at 28.5 h, 10 µM worked out at 88.8%.
Same read-out and setting: to `CCOC(=O)C1CCCN(Cc2nnsc2Cl)C1` (stereo not drawn) [CBK304848] belongs 95.7%; to `CCc1cccc(C)c1NC(=O)CN(c1cccc(Cl)c1Cl)S(=O)(=O)c1ccc(C)cc1` [CBK268666], 84.7%; to `CC(C)C(=O)Nc1nnc(-c2ccc(Cl)cc2)o1` [CBK287593], 94%.
The same measure, in the same setting: the result for `CC(NC(=O)CC1(N2CCOCC2)CCCC1)c1cccc(C#N)c1` (stereo not drawn) [CBK305320] reads 106%.
Turning to `CCOc1nc(=O)c(C)cn1C1CC(O)C(CO)O1` (stereo not drawn) [CBK201334], the viability at 28.5 h, 10 µM amounted to 96.5%.
For the molecule `Cc1ccc(O)c(Nc2ncnc3ccccc23)c1` [CBK266020C], the viability at 28.5 h, 10 µM amounted to 93.2%.
`CC(=O)NC(CC(=O)N1CCCC(n2cccn2)C1)c1cccs1` (stereo not drawn) [CBK305405]: the viability at 28.5 h, 10 µM came to 94.6%.
The same measure, in the same setting: the result for `O=c1[nH]c(=O)c2cc(S(=O)(=O)N3CCN(c4ccccn4)CC3)ccc2[nH]1` [CBK286379] reads 112%; that for `CCCC/C=C/c1cn2ccnc2c(NCCc2ccccn2)n1` [CBK066275], 106%; that for `Cc1cc(COc2ccc(C(F)(F)F)cn2)no1` [CBK115792], 91.7%.
Same read-out and setting: the result for `Cc1cc2ccccc2n2c(SCCC(=O)Nc3ccc(C(C)(C)C)cc3)nnc12` [CBK265639] reads 106%; that for `Cc1nn(C)c(C)c1C(C)NS(=O)(=O)Cc1cccc(F)c1` (stereo not drawn) [CBK281396], 107%.
With `COc1ccc(-c2nc(-c3ccc(C#N)cc3)cnc2N)cc1OC` [CBK063885], the viability at 28.5 h, 10 µM was determined as 94.6%.
The same measure, in the same setting: the result for `Cc1cc(CN(C)Cc2cnn(Cc3ccccc3)c2C)n[nH]1` [CBK283017] reads 94.6%; that for `O=C(O)COc1cccc(NC(=O)c2cc3ccccc3o2)c1` [CBK270071], 90.3%; that for `CCCNC(=O)C1(Cc2ccccc2-c2cccs2)CCN(C(=O)c2ccccc2)CC1` [CBK285694], 95%.
Turning to `CC(C)[C@H](NC(=O)C1CC(=O)N(c2ccc(F)cc2)C1)C(=O)N1CCCC1C(=O)O` (stereo partly drawn) [CBK286723], the viability at 28.5 h, 10 µM came out at 95%.
`O=C(Nc1ccc(Cl)cc1C(=O)O)c1ccccc1` [CBK269993]: the viability at 28.5 h, 10 µM was 87.5%.
The same measure, in the same setting: to `Cc1nonc1CN(C)C(=O)c1ccc2c(c1)c(C)c(C)n2C` [CBK281442] belongs 56.1%.
Take `COc1ccc2[nH]cc(CCNC(=O)CCCN(C)C)c2c1` [CBK116202]: the viability at 28.5 h, 10 µM is 96.4%.
Same read-out and setting: to `CCCC(C(=O)O)N1C(=O)C(=Cc2ccc(-c3ccc(C(=O)OCC)cc3)o2)SC1=S` (stereo not drawn) [CBK296983] belongs 80.6%; to `COc1ccc(-c2cnn3c(N)c4c(nc23)CCC4)cc1` [CBK287987], 97.4%; to `CC1=C(C(=O)OC(C)C)C(c2cccc(I)c2)C2=C(CCCC2=O)N1` (stereo not drawn) [CBK026317], 86.5%.
Same read-out and setting: the result for `CC(C)NC(=O)CN1C(=O)N2CCCN=C2c2ccc(Cl)cc21` [CBK284390] reads 96.5%; that for `COC(=O)c1c(C)[nH]c(C(=O)CSc2ncnc3sc(C)c(-c4ccccc4)c23)c1C` [CBK266004], 99.5%.
As for `CC(C)(C)c1ccc(/C=N/NC(=O)CCSc2ccc(Cl)cc2)cc1` [CBK263696], the viability at 28.5 h, 10 µM came to 105%.
On the same count and under the same terms, to `CCc1ccc2c(COC(=O)c3cccnc3SC)cc(=O)oc2c1` [CBK297486] belongs 85%; to `CN1CCN(C(=O)Cc2csc(-c3ccc(Cl)cc3)n2)CC1` [CBK107301], 104%.
Turning to `COc1ccc(Sc2nccnc2NC(C)C)cc1OC` [CBK115249], the viability at 28.5 h, 10 µM is 87.4%.
The same measure, in the same setting: the result for `COc1ccc2[nH]c3c(=O)n(C)cnc3c2c1` [CBK025870] reads 85.8%.

Staying with this data set, now noted: human, hela cells, % viability, bulk resorufin, single well.
As for `COc1cc(C2OCCNC2C)c(OC)cc1C` (stereo not drawn) [CBK010347C], the viability at 28.5 h, 10 µM stood at 90.7%.
Same read-out and setting: to `O=C(O)COCC(=O)N1CCC2(CC1)OCc1cc(F)ccc1O2` [CBK060859] belongs 106%; to `CCNC(=S)N1CCN(CCNC=C2C(=O)NC(=O)NC2=O)CC1` [CBK265228], 111%.
Still for that read-out and setting: the result for `CCOC(=O)C1(c2ccccc2)CCN(C(=O)CC2NC(=O)NC2=O)CC1` (stereo not drawn) [CBK132196] reads 93.7%.
